Where two headings read alike, the source gives them in different places.
What was measured:
[1] = tested on: Ba/F3-FGFR1-transfected cells in the presence of 10 ng/ml murine IL3; test: Ba/F3-FGFR1 (plus IL3) cellular proliferation counterscreen, Alamar Blue; assay type: cell-based; settings: for IC50: Mus musculus
How it was run: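 Compound dilutions in DMSO are combined with transfected cells in phenol red-free RPMI-1640 containing 10% FBS and L-glutamine. Plates incubate 24 h at 37 °C and 5% CO2. Viability is then scored by 4 h Alamar Blue conversion, read as fluorescence (540 nm excitation, 590 nm emission).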

[2] = target: Ba/F3-KDR-transfected cells (Homo sapiens, UniProt P35968); test: Ba/F3-KDR (minus IL3) cellular proliferation assay, Alamar Blue; assay type: cell-based
How it was run: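 Compound in DMSO was combined with Ba/F3-KDR-transfected cells in RPMI-1640, 10% FBS, 2 mM L-glutamine. After 24 h incubation at 37 °C, Alamar Blue was added for a further 4 h, then relative fluorescence units were measured.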

[3] = target: KDR (h) (VEGFR2) (Homo sapiens, UniProt P35968); test: KDR (VEGFR2) (enzymatic assay), TR-FRET; assay type: biochemical
How it was run: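 Phosphorylation of biotinylated Flt3 peptide (500 nM) by 150 ng/ml enzyme was measured at 3 μM ATP in Mn2+-containing HEPES buffer, pH 7.5, over 120 min at room temperature. Detection used Eu-anti-P-Tyr and SA-XL-665 TR-FRET.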

[4] = plus IL3, 384 well, read-out: BAF3-FGFR 1 (PLUS IL3) 384 well pIC50 (converted)
[5] = plus IL3, 96 well, read-out: BAF3-FGFR 1 (PLUS IL3) 96 well pIC50 (converted)

Sequence of Ba/F3-KDR-transfected cells (P35968 whole entry, change not shown): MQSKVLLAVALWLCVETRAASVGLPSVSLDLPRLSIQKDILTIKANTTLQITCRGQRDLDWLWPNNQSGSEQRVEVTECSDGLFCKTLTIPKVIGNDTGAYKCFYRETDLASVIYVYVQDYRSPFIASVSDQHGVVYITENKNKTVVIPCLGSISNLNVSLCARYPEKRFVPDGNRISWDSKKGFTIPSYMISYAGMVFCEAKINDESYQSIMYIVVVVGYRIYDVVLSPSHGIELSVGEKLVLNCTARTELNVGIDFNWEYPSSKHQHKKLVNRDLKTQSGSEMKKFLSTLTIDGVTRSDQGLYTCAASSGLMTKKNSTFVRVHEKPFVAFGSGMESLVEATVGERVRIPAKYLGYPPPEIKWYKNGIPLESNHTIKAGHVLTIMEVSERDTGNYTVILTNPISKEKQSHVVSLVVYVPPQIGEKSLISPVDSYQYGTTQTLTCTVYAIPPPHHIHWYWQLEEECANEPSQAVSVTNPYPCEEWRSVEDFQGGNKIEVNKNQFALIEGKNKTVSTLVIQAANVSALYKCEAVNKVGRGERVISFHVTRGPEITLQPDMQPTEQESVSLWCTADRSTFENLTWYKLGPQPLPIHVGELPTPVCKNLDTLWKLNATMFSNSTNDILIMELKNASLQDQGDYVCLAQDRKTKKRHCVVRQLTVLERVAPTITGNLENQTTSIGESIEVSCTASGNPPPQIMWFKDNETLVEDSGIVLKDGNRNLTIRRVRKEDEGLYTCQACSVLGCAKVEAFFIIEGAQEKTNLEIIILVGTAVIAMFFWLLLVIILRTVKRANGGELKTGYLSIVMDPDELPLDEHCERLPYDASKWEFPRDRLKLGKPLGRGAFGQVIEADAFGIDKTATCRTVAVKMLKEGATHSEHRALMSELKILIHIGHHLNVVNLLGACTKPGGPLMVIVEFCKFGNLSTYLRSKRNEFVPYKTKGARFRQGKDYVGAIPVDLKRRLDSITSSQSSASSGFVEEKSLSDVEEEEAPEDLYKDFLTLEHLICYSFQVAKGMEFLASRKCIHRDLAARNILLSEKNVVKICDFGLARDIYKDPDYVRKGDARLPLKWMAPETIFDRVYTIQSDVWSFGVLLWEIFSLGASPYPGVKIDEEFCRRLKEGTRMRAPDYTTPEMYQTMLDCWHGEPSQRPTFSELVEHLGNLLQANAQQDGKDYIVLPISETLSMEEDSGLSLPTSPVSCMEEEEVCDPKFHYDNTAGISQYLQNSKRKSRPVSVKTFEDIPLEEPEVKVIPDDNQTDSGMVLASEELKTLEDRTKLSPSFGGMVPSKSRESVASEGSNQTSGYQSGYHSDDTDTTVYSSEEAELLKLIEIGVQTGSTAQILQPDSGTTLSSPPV
Sequence of KDR (h) (VEGFR2) (P35968 20-1356): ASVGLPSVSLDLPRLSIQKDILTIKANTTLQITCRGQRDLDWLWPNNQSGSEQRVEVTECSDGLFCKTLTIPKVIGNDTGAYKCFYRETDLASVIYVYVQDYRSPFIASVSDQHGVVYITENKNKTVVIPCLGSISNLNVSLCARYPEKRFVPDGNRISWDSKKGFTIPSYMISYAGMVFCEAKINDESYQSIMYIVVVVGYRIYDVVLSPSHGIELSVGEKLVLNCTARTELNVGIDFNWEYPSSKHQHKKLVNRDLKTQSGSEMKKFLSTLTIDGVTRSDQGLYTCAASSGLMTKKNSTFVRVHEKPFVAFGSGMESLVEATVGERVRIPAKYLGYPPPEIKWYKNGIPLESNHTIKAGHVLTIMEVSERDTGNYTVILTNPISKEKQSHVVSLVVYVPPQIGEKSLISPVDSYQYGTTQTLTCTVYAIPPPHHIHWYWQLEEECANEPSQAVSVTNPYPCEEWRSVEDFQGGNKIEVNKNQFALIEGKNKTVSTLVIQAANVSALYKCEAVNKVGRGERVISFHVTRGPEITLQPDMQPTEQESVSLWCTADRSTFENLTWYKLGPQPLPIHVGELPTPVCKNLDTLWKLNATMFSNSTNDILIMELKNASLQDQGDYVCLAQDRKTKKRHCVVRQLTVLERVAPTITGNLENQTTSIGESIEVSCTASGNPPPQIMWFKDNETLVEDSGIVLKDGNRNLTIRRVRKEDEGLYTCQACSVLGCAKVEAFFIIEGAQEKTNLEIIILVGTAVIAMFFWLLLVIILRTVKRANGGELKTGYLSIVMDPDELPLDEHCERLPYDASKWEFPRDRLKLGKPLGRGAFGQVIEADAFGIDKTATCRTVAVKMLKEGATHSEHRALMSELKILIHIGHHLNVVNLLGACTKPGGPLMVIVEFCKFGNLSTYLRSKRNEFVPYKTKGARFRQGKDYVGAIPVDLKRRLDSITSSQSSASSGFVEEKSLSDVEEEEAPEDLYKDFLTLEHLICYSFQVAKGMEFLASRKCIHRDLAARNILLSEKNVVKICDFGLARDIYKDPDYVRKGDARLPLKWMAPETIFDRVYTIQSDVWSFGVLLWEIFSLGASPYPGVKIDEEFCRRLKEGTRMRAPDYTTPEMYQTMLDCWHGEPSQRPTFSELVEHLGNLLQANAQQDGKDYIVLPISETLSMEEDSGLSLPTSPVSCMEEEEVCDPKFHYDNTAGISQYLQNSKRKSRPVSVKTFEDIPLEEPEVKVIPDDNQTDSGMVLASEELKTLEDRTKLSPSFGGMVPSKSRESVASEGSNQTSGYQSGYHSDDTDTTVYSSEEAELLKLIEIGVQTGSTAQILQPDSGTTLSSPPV

Structure (SMILES): COc1cc(OC)cc(N(CC(OC(C)=O)C(F)(F)F)c2ccc3ncc(-c4cccnc4)nc3c2)c1 (single isomer, unassigned) [Compound 45]
- IC50 [1, 4]: > 10 µM
- BAF3-KDR (MIN IL3) 384 well pIC50 ([2]; minus IL3): <5
- IC50 [3]: > 1 µM

Structure (SMILES): COc1cc(OC)cc(N(CC(O)C(F)(F)F)c2ccc3ncc(-c4cccnc4)nc3c2)c1 (single isomer, unassigned) [Compound 53]
- IC50 [1, 4]: > 10 µM
- BAF3-KDR (MIN IL3) 384 well pIC50 ([2]; minus IL3): <5
- IC50 [3]: 0.363 µM

Structure (SMILES): COc1cc(OC)cc(N(CC(O)C(F)(F)F)c2ccc3ncc(-c4cccnc4)nc3c2)c1 (single isomer, unassigned) [Compound 54]
- BAF3-FGFR 1 (PLUS IL3) 384 well pIC50 ([1]; plus IL3, 384 well): <5
- BAF3-KDR (MIN IL3) 384 well pIC50 ([2]; minus IL3): <5
- IC50 [3]: 0.794 µM

Structure (SMILES): COc1cc(OC)cc(N(CC(OC(C)=O)C(F)(F)F)c2ccc3ncc(-c4cccnc4)nc3c2)c1 (single isomer, unassigned) [Compound 75]
- BAF3-FGFR 1 (PLUS IL3) 384 well pIC50 ([1]; plus IL3, 384 well): <5
- BAF3-KDR (MIN IL3) 384 well pIC50 ([2]; minus IL3): <5

Structure (SMILES): COc1cc(OC)cc(N(CC2CC2)c2ccc3ncc(-c4ccnn4C)nc3c2)c1 [Compound 18]
- IC50 [1, 5]: > 10 µM
- IC50 [1, 4]: > 10 µM
- BAF3-KDR (MIN IL3) 384 well pIC50 ([2]; minus IL3): <5
- IC50 [3]: > 10 µM

Structure (SMILES): COc1cc(OC)cc(N(CC2CC2)c2ccc3ncc(-c4ccc5c(ccn5C)c4)nc3c2)c1 [Compound 20]
- IC50 [1, 4]: > 10 µM
- BAF3-KDR (MIN IL3) 384 well pIC50 ([2]; minus IL3, 384 well): <5
- IC50 [3]: > 10 µM

Structure (SMILES): COc1cc(OC)cc(N(CC2CC2)c2ccc3ncc(-c4cn(C)cn4)nc3c2)c1 [Compound 21]
- IC50 [1, 5]: > 10 µM
- IC50 [1, 4]: > 10 µM
- BAF3-KDR (MIN IL3) 96 well pIC50 ([2]; minus IL3): <5
- BAF3-KDR (MIN IL3) 384 well pIC50 ([2]; minus IL3): <5
- IC50 [3]: 0.708 µM

Structure (SMILES): COc1cc(OC)cc(N(CC2CC2)c2ccc3ncc(-c4cc[nH]c4)nc3c2)c1 [Compound 36]
- IC50 [1, 5]: > 10 µM
- IC50 [1, 4]: > 10 µM
- BAF3-KDR (MIN IL3) 96 well pIC50 ([2]; minus IL3): <5
- BAF3-KDR (MIN IL3) 384 well pIC50 ([2]; minus IL3): <5
- IC50 [3]: 0.676 µM

Structure (SMILES): COc1cc(OC)cc(N(CC2CC2)c2ccc3ncc(-c4ccn(CCO)c4)nc3c2)c1 [Compound 56]
- IC50 [1, 5]: > 10 µM
- IC50 [1, 4]: > 10 µM
- BAF3-KDR (MIN IL3) 96 well pIC50 ([2]; minus IL3): 5.29
- BAF3-KDR (MIN IL3) 384 well pIC50 ([2]; minus IL3): ~5
- IC50 [3]: 0.151 µM

Structure (SMILES): COc1cc(OC)cc(N(CC2CC2)c2ccc3ncc(Nc4cnn(C)c4)nc3c2)c1 [Compound 61]
- IC50 [1, 5]: 6.92 µM
- IC50 [1, 4]: > 10 µM
- BAF3-KDR (MIN IL3) 384 well pIC50 ([2]; minus IL3): <5
- IC50 [3]: > 1 µM

Structure (SMILES): COc1cc(OC)cc(N(CC2CC2)c2ccc3ncc(-c4cnn(C)n4)nc3c2)c1 [Compound 70]
- IC50 [1, 5]: > 10 µM
- IC50 [1, 4]: > 10 µM
- BAF3-KDR (MIN IL3) 96 well pIC50 ([2]; minus IL3): <5
- BAF3-KDR (MIN IL3) 384 well pIC50 ([2]; minus IL3): <5
- IC50 [3]: > 1 µM

Structure (SMILES): COc1cc(OC)cc(N(CC2CC2)c2ccc3ncc(-c4cn(C)nn4)nc3c2)c1 [Compound 71]
- IC50 [1, 5]: > 10 µM
- IC50 [1, 4]: > 10 µM
- BAF3-KDR (MIN IL3) 96 well pIC50 ([2]; minus IL3): <5
- BAF3-KDR (MIN IL3) 384 well pIC50 ([2]; minus IL3): <5
- IC50 [3]: 0.813 µM

Structure (SMILES): COc1cc(OC)cc(N(CC2CC2)c2ccc3ncc(-c4ccn(C)c4)nc3c2)c1 [Compound 73]
- IC50 [1, 5]: > 10 µM
- IC50 [1, 4]: > 10 µM
- BAF3-KDR (MIN IL3) 96 well pIC50 ([2]; minus IL3): <5
- BAF3-KDR (MIN IL3) 384 well pIC50 ([2]; minus IL3): 5.07
- IC50 [3]: 0.295 µM

Source: patent US10052320B2, “Substituted quinoxalines as FGFR kinase inhibitors” (ASTEX THERAPEUTICS LIMITED, priority 2011, dated 2018)
